From ChEMBL document CHEMBL1201862, “PubChem BioAssay data set” (2004)
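Five concentrations, 48 hours, 96-well plates. GI50 marks 50% less growth.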 Activity calls are given as the source filed them. No stated cut-off is given here; in the data, active = GI50 up to about 1.1 µM and inactive = higher.

Experiments:
Experiment in all cases: growth of human tumour cells (NCI), 48 h
A498 = tested on: A498
A549 = tested on: A549
ACHN = tested on: ACHN
CAKI-1 = tested on: CAKI-1
CCRF-CEM = tested on: CCRF-CEM
COLO 205 = tested on: COLO 205
DU-145 = tested on: DU-145
EKVX = tested on: EKVX
HCC 2998 = tested on: HCC 2998
HCT-15 = tested on: HCT-15
HL-60 = tested on: HL-60
HOP-62 = tested on: HOP-62
HOP-92 = tested on: HOP-92
HT-29 = tested on: HT-29
Hs-578T = tested on: Hs-578T
IGROV-1 = tested on: IGROV-1
K562 = tested on: K562
KM12 = tested on: KM12
LOX IMVI = tested on: LOX IMVI
M14 = tested on: M14
MCF7 = tested on: MCF7
MDA-MB-231 = tested on: MDA-MB-231
MDA-MB-435 = tested on: MDA-MB-435
MOLT-4 = tested on: MOLT-4
NCI-H226 = tested on: NCI-H226
NCI-H23 = tested on: NCI-H23
NCI-H460 = tested on: NCI-H460
NCI-H522 = tested on: NCI-H522
NCI/ADR-RES = tested on: NCI/ADR-RES
OVCAR-3 = tested on: OVCAR-3
OVCAR-4 = tested on: OVCAR-4
OVCAR-5 = tested on: OVCAR-5
OVCAR-8 = tested on: OVCAR-8
PC-3 = tested on: PC-3
RPMI-8226 = tested on: RPMI-8226
RXF 393 = tested on: RXF 393
SF-268 = tested on: SF-268
SF-295 = tested on: SF-295
SF-539 = tested on: SF-539
SK-MEL-28 = tested on: SK-MEL-28
SK-MEL-2 = tested on: SK-MEL-2
SK-MEL-5 = tested on: SK-MEL-5
SK-OV-3 = tested on: SK-OV-3
SNB-19 = tested on: SNB-19
SNB-75 = tested on: SNB-75
SR = tested on: SR
SW-620 = tested on: SW-620
T47D = tested on: T47D
TK-10 = tested on: TK-10
U-251 = tested on: U-251
UACC-257 = tested on: UACC-257
UACC-62 = tested on: UACC-62
UO-31 = tested on: UO-31
786-0 = tested on: 786-0
HCT-116 = tested on: HCT-116
Malme-3M = tested on: Malme-3M
SN12C = tested on: SN12C

## Cc1ccc(C(=O)N/N=C(\N=N\c2ccccc2)c2ccc(N(CCC#N)CCC#N)cc2C)cc1
A498
  GI50: > 100 µM (inactive)
A549
  GI50: > 100 µM (inactive)
ACHN
  GI50: > 100 µM (inactive)
CAKI-1
  GI50: 64.6 µM (inactive)
CCRF-CEM
  GI50: > 100 µM (inactive)
COLO 205
  GI50: > 100 µM (inactive)
DU-145
  GI50: > 100 µM (inactive)
EKVX
  GI50: 74.6 µM (inactive)
HCC 2998
  GI50: > 100 µM (inactive)
HCT-15
  GI50: > 100 µM
HL-60
  GI50: > 100 µM (inactive)
HOP-62
  GI50: 23.1 µM (inactive)
HOP-92
  GI50: > 100 µM (inactive)
HT-29
  GI50: 35.1 µM (inactive)
Hs-578T
  GI50: 28.2 µM (inactive)
IGROV-1
  GI50: > 100 µM (inactive)
K562
  GI50: > 100 µM (inactive)
KM12
  GI50: > 100 µM (inactive)
LOX IMVI
  GI50: 99.1 µM (inactive)
M14
  GI50: > 100 µM (inactive)
MCF7
  GI50: 53.5 µM (inactive)
MDA-MB-231
  GI50: > 100 µM (inactive)
MDA-MB-435
  GI50: 45.6 µM (inactive)
MOLT-4
  GI50: > 100 µM (inactive)
NCI-H226
  GI50: 54.8 µM (inactive)
NCI-H23
  GI50: 85.7 µM (inactive)
NCI-H460
  GI50: > 100 µM (inactive)
NCI-H522
  GI50: 19.4 µM (inactive)
NCI/ADR-RES
  GI50: > 100 µM (inactive)
OVCAR-3
  GI50: 39.2 µM (inactive)
OVCAR-4
  GI50: 65.5 µM (inactive)
OVCAR-5
  GI50: > 100 µM (inactive)
OVCAR-8
  GI50: 38 µM (inactive)
PC-3
  GI50: 67.9 µM (inactive)
RPMI-8226
  GI50: > 100 µM (inactive)
RXF 393
  GI50: 38.9 µM (inactive)
SF-268
  GI50: 24.2 µM (inactive)
SF-295
  GI50: 86.5 µM (inactive)
SF-539
  GI50: 18.3 µM (inactive)
SK-MEL-28
  GI50: 13 µM (inactive)
SK-MEL-2
  GI50: 69.8 µM (inactive)
SK-MEL-5
  GI50: 31.8 µM (inactive)
SK-OV-3
  GI50: 74 µM (inactive)
SNB-19
  GI50: 58.3 µM (inactive)
SNB-75
  GI50: 34 µM (inactive)
SR
  GI50: > 100000 nM (inactive)
SW-620
  GI50: > 100 µM (inactive)
T47D
  GI50: > 100 µM (inactive)
TK-10
  GI50: 51.1 µM (inactive)
U-251
  GI50: 92.5 µM (inactive)
UACC-257
  GI50: 82.4 µM (inactive)
UACC-62
  GI50: 38.8 µM (inactive)
UO-31
  GI50: > 100 µM (inactive)

## COc1ccc(/C=C2/CSCC3=C2N=C(S)NC3c2ccc(OC)c(OC)c2OC)c(OC)c1OC (configuration not stated)
786-0
  GI50: 13.8 µM (inactive)
A498
  GI50: 19 µM (inactive)
A549
  GI50: 24.8 µM (inactive)
ACHN
  GI50: 19 µM (inactive)
CAKI-1
  GI50: 36.6 µM (inactive)
CCRF-CEM
  GI50: 3.4 µM (inactive)
COLO 205
  GI50: 19.9 µM (inactive)
DU-145
  GI50: 38.3 µM (inactive)
EKVX
  GI50: 51.3 µM (inactive)
HCC 2998
  GI50: 31.3 µM (inactive)
HCT-116
  GI50: 8.09 µM (inactive)
HCT-15
  GI50: 25.7 µM
HL-60
  GI50: 6.34 µM (inactive)
HOP-62
  GI50: 20.1 µM (inactive)
HOP-92
  GI50: < 0.01 µM (active)
HT-29
  GI50: 12.6 µM (inactive)
Hs-578T
  GI50: > 100 µM (inactive)
IGROV-1
  GI50: 20 µM (inactive)
K562
  GI50: 7.6 µM (inactive)
KM12
  GI50: 12.1 µM (inactive)
LOX IMVI
  GI50: 15.4 µM (inactive)
M14
  GI50: 12.6 µM (inactive)
MCF7
  GI50: 0.0798 µM (active)
MDA-MB-231
  GI50: 17.7 µM (inactive)
MDA-MB-435
  GI50: 7.82 µM (inactive)
MOLT-4
  GI50: 3.05 µM (inactive)
Malme-3M
  GI50: 23.2 µM (inactive)
NCI-H226
  GI50: 35 µM (inactive)
NCI-H23
  GI50: 18.9 µM (inactive)
NCI-H460
  GI50: 27.6 µM (inactive)
NCI-H522
  GI50: 22.1 µM (inactive)
NCI/ADR-RES
  GI50: 7.43 µM (inactive)
OVCAR-3
  GI50: 43.7 µM (inactive)
OVCAR-4
  GI50: 2.61 µM (inactive)
OVCAR-5
  GI50: 25.2 µM (inactive)
OVCAR-8
  GI50: 7.52 µM (inactive)
PC-3
  GI50: 12.1 µM (inactive)
RPMI-8226
  GI50: 3.7 µM (inactive)
RXF 393
  GI50: 14.4 µM (inactive)
SF-268
  GI50: 16.8 µM (inactive)
SF-295
  GI50: 32.6 µM (inactive)
SF-539
  GI50: 16.8 µM (inactive)
SK-MEL-28
  GI50: 18.4 µM (inactive)
SK-MEL-2
  GI50: 22.8 µM (inactive)
SK-MEL-5
  GI50: 11.1 µM (inactive)
SK-OV-3
  GI50: 49.7 µM (inactive)
SN12C
  GI50: 17 µM (inactive)
SNB-19
  GI50: 20.1 µM (inactive)
SNB-75
  GI50: 0.209 µM (active)
SR
  GI50: < 10 nM (active)
SW-620
  GI50: 27.7 µM (inactive)
T47D
  GI50: 43.4 µM (inactive)
TK-10
  GI50: 26.2 µM (inactive)
U-251
  GI50: 7.48 µM (inactive)
UACC-257
  GI50: 14.8 µM (inactive)
UACC-62
  GI50: 16.8 µM (inactive)

## COc1cc(C2c3cc4c(cc3[C@@H](NC3CCN(Cc5ccccc5)CC3)C3COC(=O)[C@H]23)OCO4)cc(OC)c1O (some centres not stated)
SN12C
  GI50: 0.0399 µM (active)
SR
  GI50: < 10 nM (active)

## CC(C)Cc1ccc(C(C)C(=O)O)cc1 (configuration not stated) [IBUPROFEN]
NCI-H23
  GI50: > 100 µM (inactive)
